Assay results: ChEMBL document CHEMBL4814045, “Discovery of novel Staphylococcus aureus penicillin binding protein 2a inhibitors by multistep virtual screening and biological evaluation” (Bioorg Med Chem Lett, 2021)
Values after ≈ are worked out from the molar mass of the structure shown.

How the values were obtained:
[1] = test system: L02; assay: Cytotoxicity against human LO2 cells; assay type: cell-based
[2] = test system: Staphylococcus aureus; assay: Antibacterial activity against Staphylococcus aureus […]; assay type: functional
[3] = test system: Staphylococcus aureus; assay: Antibacterial activity against methicillin-resistant Staphylococcus aureus ATCC 33591; assay type: functional
[4] = test system: Staphylococcus aureus; assay: Bactericidal activity against methicillin-resistant Staphylococcus aureus 04 clinical isolate by broth dilution assay; assay type: functional
[5] = test system: Staphylococcus aureus; assay: Bactericidal activity against methicillin-resistant Staphylococcus aureus 02 clinical isolate by broth dilution assay; assay type: functional
[6] = test system: Staphylococcus aureus; assay: Antibacterial activity against methicillin-resistant Staphylococcus aureus 03 clinical isolate by broth dilution assay; assay type: functional
[7] = test system: Staphylococcus aureus; assay: Bactericidal activity against methicillin-resistant Staphylococcus aureus 08 clinical isolate by broth dilution assay; assay type: functional
[8] = test system: Staphylococcus aureus; assay: Bactericidal activity against methicillin-resistant Staphylococcus aureus 03 clinical isolate by broth dilution assay; assay type: functional
[9] = test system: Staphylococcus aureus; assay: Bactericidal activity against methicillin-resistant Staphylococcus aureus 09 clinical isolate by broth dilution assay; assay type: functional
[10] = test system: Staphylococcus aureus; assay: Bactericidal activity against methicillin-resistant Staphylococcus aureus 06 clinical isolate by broth dilution assay; assay type: functional
[11] = test system: Staphylococcus aureus; assay: Bactericidal activity against methicillin-resistant Staphylococcus aureus 10 clinical isolate by broth dilution assay; assay type: functional
[12] = test system: Staphylococcus aureus; assay: Bactericidal activity against methicillin-resistant Staphylococcus aureus 05 clinical isolate by broth dilution assay; assay type: functional
[13] = test system: Staphylococcus aureus; assay: Bactericidal activity against methicillin-resistant Staphylococcus aureus 01 clinical isolate by broth dilution assay; assay type: functional
[14] = test system: Staphylococcus aureus; assay: Antibacterial activity against methicillin-resistant Staphylococcus aureus 08 clinical isolate by broth dilution assay; assay type: functional
[15] = test system: Staphylococcus aureus; assay: Antibacterial activity against methicillin-resistant Staphylococcus aureus 11 clinical isolate by broth dilution assay; assay type: functional
[16] = test system: Staphylococcus aureus; assay: Bactericidal activity against methicillin-resistant Staphylococcus aureus 13 clinical isolate by broth dilution assay; assay type: functional
[17] = test system: Staphylococcus aureus; assay: Bactericidal activity against methicillin-resistant Staphylococcus aureus 11 clinical isolate by broth dilution assay; assay type: functional
[18] = test system: Staphylococcus aureus; assay: Antibacterial activity against methicillin-resistant Staphylococcus aureus 12 clinical isolate by broth dilution assay; assay type: functional
[19] = test system: Staphylococcus aureus; assay: Bactericidal activity against methicillin-resistant Staphylococcus aureus 07 clinical isolate by broth dilution assay; assay type: functional
[20] = test system: Staphylococcus aureus; assay: Bactericidal activity against methicillin-resistant Staphylococcus aureus 12 clinical isolate by broth dilution assay; assay type: functional
[21] = target: T1, MecA (Staphylococcus aureus, UniProt Q7DHH4); assay: Binding affinity to Staphylococcus aureus PBP2a assessed as equilibrium dissociation constant by SPR assay
T1 sequence (Q7DHH4 whole entry): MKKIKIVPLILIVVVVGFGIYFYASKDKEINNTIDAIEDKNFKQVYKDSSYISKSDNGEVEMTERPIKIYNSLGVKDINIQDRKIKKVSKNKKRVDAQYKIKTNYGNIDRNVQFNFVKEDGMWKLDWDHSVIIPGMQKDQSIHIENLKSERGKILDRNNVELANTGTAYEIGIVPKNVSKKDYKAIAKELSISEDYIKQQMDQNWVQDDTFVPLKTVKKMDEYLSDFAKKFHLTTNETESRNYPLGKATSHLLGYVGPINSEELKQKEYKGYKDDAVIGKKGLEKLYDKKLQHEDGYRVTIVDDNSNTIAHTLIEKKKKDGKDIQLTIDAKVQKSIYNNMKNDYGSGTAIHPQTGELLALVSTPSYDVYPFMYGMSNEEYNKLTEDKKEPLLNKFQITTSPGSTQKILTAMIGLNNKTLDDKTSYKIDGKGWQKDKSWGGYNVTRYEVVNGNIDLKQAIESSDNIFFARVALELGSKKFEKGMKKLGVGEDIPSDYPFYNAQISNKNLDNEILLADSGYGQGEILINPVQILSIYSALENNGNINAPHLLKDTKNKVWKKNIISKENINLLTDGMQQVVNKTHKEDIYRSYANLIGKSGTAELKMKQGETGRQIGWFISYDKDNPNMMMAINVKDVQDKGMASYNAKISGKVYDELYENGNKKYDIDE

[22] = target: T2, MecA (Staphylococcus aureus) (UniProt Q7DHH4); assay: Binding affinity to Staphylococcus aureus PBP2a assessed as association constant by SPR assay
T2 sequence (whole entry): T1 sequence (Q7DHH4 whole entry)

[23] = test system: Staphylococcus aureus; assay: Antibacterial activity against methicillin-resistant Staphylococcus aureus 05 clinical isolate by broth dilution assay; assay type: functional
[24] = test system: Staphylococcus aureus; assay: Antibacterial activity against methicillin-resistant Staphylococcus aureus 09 clinical isolate by broth dilution assay; assay type: functional
[25] = test system: Staphylococcus aureus; assay: Antibacterial activity against methicillin-resistant Staphylococcus aureus 04 clinical isolate by broth dilution assay; assay type: functional
[26] = test system: Staphylococcus aureus; assay: Antibacterial activity against methicillin-resistant Staphylococcus aureus 07 clinical isolate by broth dilution assay; assay type: functional
[27] = test system: Staphylococcus aureus; assay: Antibacterial activity against methicillin-resistant Staphylococcus aureus 01 clinical isolate by broth dilution assay; assay type: functional
[28] = test system: Staphylococcus aureus; assay: Antibacterial activity against methicillin-resistant Staphylococcus aureus 02 clinical isolate by broth dilution assay; assay type: functional
[29] = test system: Staphylococcus aureus; assay: Antibacterial activity against methicillin-resistant Staphylococcus aureus 06 clinical isolate by broth dilution assay; assay type: functional
[30] = test system: Staphylococcus aureus; assay: Antibacterial activity against methicillin-resistant Staphylococcus aureus 10 clinical isolate by broth dilution assay; assay type: functional
[31] = test system: Staphylococcus aureus; assay: Antibacterial activity against methicillin-resistant Staphylococcus aureus 13 clinical isolate by broth dilution assay; assay type: functional

For `C[C@]12CCC(=O)C=C1CC[C@@H]1[C@H]2CC[C@@]2(C)[C@H]1CC[C@]2(O)C(=O)COC(=O)CCC(=O)N[C@H]1CCCCNC1=O`, the IC50 [1] was 16.9 µM, the MIC [2] was 4 µg/mL (≈ 7.19 µM) and the MIC [3] was 4 µg/mL (≈ 7.19 µM).
`CN[C@H](CC(C)C)C(=O)N[C@H]1C(=O)N[C@@H](CC(N)=O)C(=O)N[C@H]2C(=O)N[C@H]3C(=O)N[C@H](C(=O)N[C@H](C(=O)O)c4cc(O)cc(O)c4-c4cc3ccc4O)[C@H](O)c3ccc(c(Cl)c3)Oc3cc2cc(c3O[C@@H]2O[C@H](CO)[C@@H](O)[C@H](O)[C@H]2O[C@H]2C[C@](C)(N)[C@H](O)[C@H](C)O2)Oc2ccc(cc2Cl)[C@H]1O` [VANCOMYCIN] showed an MBC [4] of 128 µg/mL (≈ 88.3 µM), an IC50 [1] greater than 20 µM and an MBC [5] of 64 µg/mL (≈ 44.2 µM). The MIC [6] was 8 µg/mL (≈ 5.52 µM), the MBC [7] was 64 µg/mL (≈ 44.2 µM) and the MBC [8] was 128 µg/mL (≈ 88.3 µM). It also gave an MBC [9] of 32 µg/mL (≈ 22.1 µM), an MBC [10] of 8 µg/mL (≈ 5.52 µM) and an MBC [11] of 128 µg/mL (≈ 88.3 µM). For the same compound, the MBC [12] was 64 µg/mL (≈ 44.2 µM), the MBC [13] was 32 µg/mL (≈ 22.1 µM) and the MIC [14] was 8 µg/mL (≈ 5.52 µM). For the same compound, the MIC [15] was 16 µg/mL (≈ 11 µM), the MBC [16] was 64 µg/mL (≈ 44.2 µM) and the MBC [17] was 64 µg/mL (≈ 44.2 µM). For the same compound, the MIC [18] was 8 µg/mL (≈ 5.52 µM), the MBC [19] was 32 µg/mL (≈ 22.1 µM) and the MBC [20] was 128 µg/mL (≈ 88.3 µM).
In the case of `O=C(C[C@@H]1NC(=O)c2ccccc2NC1=O)NCCc1c[nH]c2ccc(OCc3ccccc3)cc12`, the IC50 [1] is reported as greater than 20 µM, the MIC [2] is reported as 64 µg/mL (≈ 133 µM) and the MIC [3] is reported as 32 µg/mL (≈ 66.3 µM).
`CC(=O)Nc1ccc(NC(=O)COc2cc3c(c4oc(=O)c(C)c(C)c24)CCC(C)(C)O3)cc1` gave an IC50 [1] greater than 20 µM, an MIC [2] of 32 µg/mL (≈ 68.9 µM) and an MIC [3] of 64 µg/mL (≈ 138 µM).
Compound `COc1ccc(CNC(=O)[C@@H](C)Oc2ccc3c(c2)c2cncc4c5cc(OC)c(OC)cc5c(=O)n3c42)c(OC)c1` has an IC50 [1] of 6.4 µM, an MIC [2] of 64 µg/mL (≈ 113 µM) and an MIC [3] of 128 µg/mL (≈ 226 µM).
In the case of `COc1ccc(CCNC(=O)COc2ccc3c(c2)OC2(CCN(C(C)=O)CC2)CC3=O)cc1OC`, the IC50 [1] is reported as 7.8 µM, the MIC [2] is reported as 16 µg/mL (≈ 32.2 µM) and the MIC [3] is reported as 64 µg/mL (≈ 129 µM).
For `COc1ccc(-c2cc(=O)oc3c(C)c(OCC(=O)N[C@@H](Cc4c[nH]c5ccc(O)cc45)C(=O)O)ccc23)cc1`, the IC50 [1] was 11.6 µM, the Kd [21] was 0.264 µM and the MIC [2] was 4 µg/mL (≈ 7.37 µM). For the same compound, the Ka [22] was 5.65 10^5/M/s and the MIC [3] was 4 µg/mL (≈ 7.37 µM).
`COc1cc2c(c(OC)c1OC)-c1ccc(NCC(=O)NCCc3c[nH]c4ccccc34)c(=O)cc1[C@@H](NC(C)=O)CC2` showed an IC50 [1] greater than 20 µM, a Kd [21] of 0.168 µM and an MIC [2] of 2 µg/mL (≈ 3.42 µM). For the same compound, the Ka [22] was 3.48 10^5/M/s and the MIC [3] was 4 µg/mL (≈ 6.84 µM).
For `COc1cccc(/C=C2\Oc3cc(OCC(=O)N[C@@H](Cc4c[nH]c5ccccc45)C(=O)O)ccc3C2=O)c1`, the IC50 [1] was greater than 20 µM, the MIC [2] was 4 µg/mL (≈ 7.8 µM) and the MIC [3] was 8 µg/mL (≈ 15.6 µM).
`Cc1ccc(NC(=O)[C@H](Cc2c[nH]c3ccccc23)NC(=O)C2CCN(C(=O)CNC(=O)OC(C)(C)C)CC2)cc1` gave an MBC [4] of 64 µg/mL (≈ 114 µM), an IC50 [1] greater than 20 µM and an MIC [23] of 1 µg/mL (≈ 1.78 µM). It also gave an MIC [24] of 16 µg/mL (≈ 28.5 µM), a Kd [21] of 0.129 µM and an MIC [25] of 4 µg/mL (≈ 7.12 µM). For the same compound, the MBC [5] was 64 µg/mL (≈ 114 µM), the MIC [26] was 4 µg/mL (≈ 7.12 µM) and the MIC [2] was 2 µg/mL (≈ 3.56 µM). For the same compound, the MIC [6] was 8 µg/mL (≈ 14.2 µM), the Ka [22] was 3.28 10^5/M/s and the MBC [7] was 32 µg/mL (≈ 57 µM). The MIC [27] was 2 µg/mL (≈ 3.56 µM), the MIC [28] was 4 µg/mL (≈ 7.12 µM) and the MBC [8] was 128 µg/mL (≈ 228 µM). The MBC [9] was 64 µg/mL (≈ 114 µM), the MBC [10] was 64 µg/mL (≈ 114 µM) and the MBC [11] was 64 µg/mL (≈ 114 µM). For the same compound, the MBC [12] was 8 µg/mL (≈ 14.2 µM), the MIC [29] was 4 µg/mL (≈ 7.12 µM) and the MBC [13] was 32 µg/mL (≈ 57 µM). It also gave an MIC [14] of 0.5 µg/mL (≈ 0.89 µM), an MIC [3] of 2 µg/mL (≈ 3.56 µM) and an MIC [15] of 2 µg/mL (≈ 3.56 µM). It also gave an MBC [16] of 128 µg/mL (≈ 228 µM), an MBC [17] of 128 µg/mL (≈ 228 µM) and an MIC [18] of 8 µg/mL (≈ 14.2 µM). The MBC [19] was 64 µg/mL (≈ 114 µM), the MIC [30] was 4 µg/mL (≈ 7.12 µM) and the MIC [31] was 16 µg/mL (≈ 28.5 µM). For the same compound, the MBC [20] was 256 µg/mL (≈ 456 µM).
Compound `COc1ccc(NC(=O)[C@H]2Oc3c(c(=O)oc4ccccc34)[C@@H]2c2ccc(CCCN3CCCC3=O)cc2)cc1` has an IC50 [1] greater than 20 µM, a Kd [21] of 86.6 µM and an MIC [2] of 128 µg/mL (≈ 238 µM). For the same compound, the Ka [22] was 2.46 10^4/M/s and the MIC [3] was 64 µg/mL (≈ 119 µM).
`CC[C@H](C)[C@@H](CC(=O)CNC(=O)CCc1c(C)c2cc3oc(C)c(-c4ccccc4)c3c(C)c2oc1=O)C(=O)O` showed an IC50 [1] greater than 20 µM, an MIC [2] of 32 µg/mL (≈ 58.6 µM) and an MIC [3] of 64 µg/mL (≈ 117 µM).
